Values of other authors, collected in patent US20050101653A1, “Combination therapy for the treatment of migraine” (priority 1999, published 2005).

Tested on: carotid vascular resistance
Conditions: anaesthetized dog

## CNS(=O)(=O)Cc1ccc2[nH]cc(CCN(C)C)c2c1 [Sumatriptan, sumatriptan]
  effect on carotid vascular resistance: selective increase in carotid vascular resistance
